Test results: patent US20070010670A1, “Nitrogen-containing fused ring compounds and use thereof” (Japan Tobacco Inc., priority 2004, published 2007)

Legend:
[1] = target: T1, URAT1 (Homo sapiens, UniProt Q96S37); assay: Uric acid transport inhibitory test using human URAT1-expressing cells; assay type: cell-based; parameters: Human URAT1 full length cDNA was subcloned to expression vector pcDNA3.1; expressed in transfected cells; host or cells: HEK293 cells (pcDNA3.1, geneticin-selected); conditions: human URAT1 expressing HEK293 cells, 14C-labeled uric acid uptake 5 min, room temperature; read-out: hURAT1 (IC50, concentration necessary for inhibiting the uric acid transport rate by 50%)
T1 sequence (Q96S37 1-553): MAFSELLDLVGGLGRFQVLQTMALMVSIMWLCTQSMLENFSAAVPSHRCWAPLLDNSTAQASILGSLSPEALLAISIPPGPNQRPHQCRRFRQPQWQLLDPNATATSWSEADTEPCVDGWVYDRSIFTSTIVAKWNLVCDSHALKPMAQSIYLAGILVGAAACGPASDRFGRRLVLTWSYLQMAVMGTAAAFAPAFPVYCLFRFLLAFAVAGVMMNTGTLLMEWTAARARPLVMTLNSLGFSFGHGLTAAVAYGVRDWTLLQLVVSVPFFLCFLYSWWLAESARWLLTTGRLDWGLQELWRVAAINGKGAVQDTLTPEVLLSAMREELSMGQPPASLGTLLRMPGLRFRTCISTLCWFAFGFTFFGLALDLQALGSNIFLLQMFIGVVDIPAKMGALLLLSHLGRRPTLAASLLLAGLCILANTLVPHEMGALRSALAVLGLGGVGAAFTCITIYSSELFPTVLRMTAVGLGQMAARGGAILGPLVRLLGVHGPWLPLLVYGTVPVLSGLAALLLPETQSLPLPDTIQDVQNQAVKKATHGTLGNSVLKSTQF
Source text: Human URAT1 full length cDNA was subcloned to expression vector pcDNA3.1 and human URAT1 gene was transfected into human embryonic kidney derived cell line (HEK293 cells) by liposome method using Lipofectamine2000. Simultaneously, HEK293 cells transfected with expression vector pcDNA3.1 alone (hereinafter mock cells) were also produced. HEK293 cells expressing human URAT1 gene or mock cells were selected with geneticin resistance as an index. The functional expression of human URAT1 gene was confirmed by a method similar to the following method, using transport of uric acid labeled with ^14C into the cells as an index.
Human URAT1 expressing HEK293 cells or mock cells were cultured in Dulbecco's modified Eagle's MEM medium (high glucose) containing 10% fetal bovine serum, 0.5 mg/mL geneticin sulfate, 100 units/mL penicillin and 100 μg/mL streptomycin under the conditions of 37° C. and 5% CO2 in an incubator. The cells were plated in a 96 well plate (poly-D-Lysine coated) at 1×10^5 cells/well and the following uric acid transport inhibitory test was performed 24 hr later. This test was performed at room temperature.
After the medium was removed by aspiration from each well, the cells were washed once with Hank's Balanced Salt Solution (HBSS) and preincubated with HBSS ([…]) for 5 min. HBSS was aspirated and an assay buffer (wherein NaCl in the above-mentioned HBSS had been substituted with Na-gluconate) containing various concentrations of the Example compound and a radioactive ligand (uric acid labeled with 14C; final concentration […]) was added to each well at […] and an uptake reaction was carried out for 5 min. After the reaction, the cells were washed twice with ice-cold HBSS ([…]), and Microscin ti TM 20 (PerkinElmer) was added at […]. The cells were lysed by stirring and the radioactivity of each well was measured in a liquid scintillation counter (TOP COUNT, Packard).
The uric acid transport rate (%) of the Example compound at each concentration was calculated relative to the radioactivity (difference in radioactivity between human URAT1 expressing HEK293 cells and mock cells without addition of Example compound (DMSO addition)) showing URAT1 specific uric acid transport as 100%, and the concentration (IC50) of the Example compound necessary for inhibiting the uric acid transport rate by 50% was determined. In Table-Table , “+++” means IC50 value of less than 100 nM, “++” means IC50 value of 100 nM to less than 1000 nM, and “+” means IC50 value of 1000 nM to less than 3000 nM.

[2] = target: T2, CYP2C9 (Homo sapiens, UniProt P11712); assay: CYP inhibitory test using human liver microsome; assay type: in vitro ADME; conditions: model substrate diclofenac, 37° C. 10 min, read-out: CYP2C9 inhibition IC50
T2 construct: Human liver microsome (20 mg protein/mL, 5 μL, Xenotech LLC, purchased from Lenexa KS); tissue Xenotech LLC; host or cells: human liver microsome
How it was run: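 Pooled human liver microsomes in 100 mM potassium phosphate pH 7.4 with NADPH-regenerating system, preincubated with compound 5 min at 37 °C; diclofenac as CYP2C9 substrate (2 mM stock), 10 min at 37 °C. Metabolite quantified by LC/MS/MS; IC50 relative to DMSO-only activity as 100%.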

[3] = target: CYP3A4 (Homo sapiens, UniProt P08684); conditions: cited from earlier work
[4] = target: T1, URAT1; parameters: host or cells: Xenopus laevis oocyte expression system; conditions: Xenopus laevis oocyte expression system; cited from earlier work
[5] = target: CYP2C19 (Homo sapiens, UniProt P33261); conditions: cited from earlier work
[6] = target: T3, CYP2C8 (Homo sapiens, UniProt P10632); conditions: cited from earlier work
T3 sequence (P10632 1-490): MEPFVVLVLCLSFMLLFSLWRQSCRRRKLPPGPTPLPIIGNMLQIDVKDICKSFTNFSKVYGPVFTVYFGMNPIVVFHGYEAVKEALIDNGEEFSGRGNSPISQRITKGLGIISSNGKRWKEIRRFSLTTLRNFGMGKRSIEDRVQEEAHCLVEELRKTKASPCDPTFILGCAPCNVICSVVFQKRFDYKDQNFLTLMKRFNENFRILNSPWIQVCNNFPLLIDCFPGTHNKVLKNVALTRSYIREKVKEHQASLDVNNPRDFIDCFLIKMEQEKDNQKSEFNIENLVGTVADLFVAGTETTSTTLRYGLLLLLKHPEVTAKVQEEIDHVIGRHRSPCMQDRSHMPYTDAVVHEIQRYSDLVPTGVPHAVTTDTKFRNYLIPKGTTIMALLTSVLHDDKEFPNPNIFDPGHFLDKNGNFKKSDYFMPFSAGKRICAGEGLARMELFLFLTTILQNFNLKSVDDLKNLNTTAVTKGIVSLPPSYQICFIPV

T2 sequence (P11712 whole entry): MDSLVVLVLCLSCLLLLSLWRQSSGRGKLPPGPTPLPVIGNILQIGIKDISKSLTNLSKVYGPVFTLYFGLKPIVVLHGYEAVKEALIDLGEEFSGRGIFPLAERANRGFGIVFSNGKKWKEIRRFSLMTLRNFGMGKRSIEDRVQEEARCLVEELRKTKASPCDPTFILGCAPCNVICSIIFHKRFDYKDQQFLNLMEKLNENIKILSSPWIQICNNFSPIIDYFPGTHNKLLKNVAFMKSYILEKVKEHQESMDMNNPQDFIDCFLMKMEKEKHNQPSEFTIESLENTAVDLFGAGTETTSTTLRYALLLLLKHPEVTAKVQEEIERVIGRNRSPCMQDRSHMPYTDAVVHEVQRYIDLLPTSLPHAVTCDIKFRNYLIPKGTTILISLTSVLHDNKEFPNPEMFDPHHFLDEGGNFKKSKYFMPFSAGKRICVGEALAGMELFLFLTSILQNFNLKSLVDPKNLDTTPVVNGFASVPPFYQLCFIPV
Chain of CYP3A4 (P08684 whole entry): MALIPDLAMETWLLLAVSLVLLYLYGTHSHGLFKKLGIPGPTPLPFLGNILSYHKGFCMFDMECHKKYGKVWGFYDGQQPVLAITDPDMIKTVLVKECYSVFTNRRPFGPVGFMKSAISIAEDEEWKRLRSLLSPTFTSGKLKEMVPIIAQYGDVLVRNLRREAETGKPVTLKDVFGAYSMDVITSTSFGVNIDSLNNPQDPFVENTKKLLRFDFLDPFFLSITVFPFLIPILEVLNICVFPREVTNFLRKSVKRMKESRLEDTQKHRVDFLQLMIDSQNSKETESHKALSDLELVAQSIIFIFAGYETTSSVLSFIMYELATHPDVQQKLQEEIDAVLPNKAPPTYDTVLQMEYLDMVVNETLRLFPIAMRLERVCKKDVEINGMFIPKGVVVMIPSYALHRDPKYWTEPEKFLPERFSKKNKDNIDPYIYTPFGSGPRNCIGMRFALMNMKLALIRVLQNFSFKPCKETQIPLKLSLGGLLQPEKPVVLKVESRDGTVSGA
Chain of CYP2C19 (P33261 whole entry): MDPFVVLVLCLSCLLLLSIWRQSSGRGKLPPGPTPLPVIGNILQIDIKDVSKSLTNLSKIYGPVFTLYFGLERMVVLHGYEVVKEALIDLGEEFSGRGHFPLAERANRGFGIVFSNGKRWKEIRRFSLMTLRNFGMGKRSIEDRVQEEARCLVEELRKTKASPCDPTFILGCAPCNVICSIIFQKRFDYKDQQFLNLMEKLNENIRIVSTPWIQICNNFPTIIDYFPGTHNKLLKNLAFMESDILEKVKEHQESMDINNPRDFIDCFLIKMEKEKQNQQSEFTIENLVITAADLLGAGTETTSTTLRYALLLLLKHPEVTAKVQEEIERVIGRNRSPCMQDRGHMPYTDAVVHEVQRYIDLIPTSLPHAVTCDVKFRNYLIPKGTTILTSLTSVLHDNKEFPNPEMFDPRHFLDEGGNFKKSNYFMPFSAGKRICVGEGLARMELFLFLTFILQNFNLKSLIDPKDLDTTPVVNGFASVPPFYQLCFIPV

SMILES | IC50 [1] [nM] | IC50 [2] [nM] | inhibitory action on CYP3A4 [3] | uric acid uptake via URAT1 [4] | inhibitory action on CYP2C19 [5] | inhibitory action on CYP2C8 [6]
CC1COc2ccccc2N1C(=O)c1cc(Cl)c(O)c(Cl)c1 (stereo not drawn) [Example 93, (3,5-dichloro-4-hydroxyphenyl)-(3-methyl-2,3-dihydrobenzo[1,4]oxazin-4-yl)-methanone] | 100 to 1000 | > 50000 |  |  |  | 
CS(=O)(=O)Nc1c(Cl)cc(C(=O)N2CCOc3ccccc32)cc1Cl [Example 94, N-[2,6-dichloro-4-(2,3-dihydrobenzo[1,4]oxazine-4-carbonyl)phenyl]methanesulfonamide] | 100 to 1000 | 6000 |  |  |  | 
CCc1oc2ccccc2c1C(=O)c1cc(Br)c(O)c(Br)c1 [benzbromarone] |  |  | strong inhibitory action | inhibited | strong inhibitory action | strong inhibitory action
CCCN(CCC)S(=O)(=O)c1ccc(C(=O)O)cc1 [probenecid] |  |  |  | inhibited |  | 
